Measurements from US20220056014A1, “PHENYLPYRROLIDINE COMPOUND AND USE THEREOF” (WUHAN HUMANWELL INNOVATIVE DRUG RESEARCH AND DEVELOPMENT …, priority 2018, published 2022).

Assays:
[1] = biological target: T1, PDE4B (Homo sapiens, UniProt Q07343); assay: PDE4B enzyme activity assay (PDE-Glo Phosphodiesterase Assay Kit); format: biochemical; conditions: for IC50 (PDE4D)/IC50 (PDE4B): selectivity ratio
T1 construct: purchased Enzo Life Sciences BML-SE522-0020
Protocol: (§1) For the previously synthesized compounds, the inhibitory activity of the compounds against PDE4B and against PDE4D was tested by using PDE-Glo Phosphodiesterase Assay Kit (promega, V1361). In short, in accordance with the instructions of the kit, a concentrated stock solution (10 mM) the compound to be tested was first prepared with DMSO solvent, and the concentrated stock solution was then diluted into 10× working solutions with a Reaction buffer provided in the kit. With the Reaction buffer, on ice, PDE4B enzyme (Enzo Life Sciences, BML-SE522-0020) was diluted to a concentration of 1 ng/μl to obtain a PDE4B enzyme working solution, and PDE4D enzyme (Enzo Life Sciences, BML-SE523-0020) was diluted to a concentration of 4 ng/μl to obtain a PDE4D enzyme working solution. 1.5 μl of the PDE4B working solution (or PDE4D working solution) and 1 μl of the compound working solution were added to wells of 384-well plate (Corning, CLS3707), and incubated with shaking at room temperature for 5 min, followed by adding 2.5 μl of cAMP (in Reaction buffer, 2 μM) per well, incubating with shaking at room temperature for 20 min. 2.5 μl/well of 1× Termination Buffer, and then 2.5 μl/well of 1× Detection Buffer were added, and further incubated with shaking at room temperature for 20 min. 10 μl/well of 1× Kinase-Glo was added, and the plate was incubated with shaking at room temperature for 10 min, and bioluminescence was measured with PheraStar instrument. The experimental results were plotted with GraphPad Prism software, and fitted to calculate IC50 of each compound.

[2] = biological target: T2, PDE4D (Homo sapiens, UniProt Q08499); assay: PDE4D enzyme activity assay (PDE-Glo Phosphodiesterase Assay Kit); format: biochemical
T2 construct: purchased Enzo Life Sciences BML-SE523-0020
T2 sequence (Q08499 whole entry): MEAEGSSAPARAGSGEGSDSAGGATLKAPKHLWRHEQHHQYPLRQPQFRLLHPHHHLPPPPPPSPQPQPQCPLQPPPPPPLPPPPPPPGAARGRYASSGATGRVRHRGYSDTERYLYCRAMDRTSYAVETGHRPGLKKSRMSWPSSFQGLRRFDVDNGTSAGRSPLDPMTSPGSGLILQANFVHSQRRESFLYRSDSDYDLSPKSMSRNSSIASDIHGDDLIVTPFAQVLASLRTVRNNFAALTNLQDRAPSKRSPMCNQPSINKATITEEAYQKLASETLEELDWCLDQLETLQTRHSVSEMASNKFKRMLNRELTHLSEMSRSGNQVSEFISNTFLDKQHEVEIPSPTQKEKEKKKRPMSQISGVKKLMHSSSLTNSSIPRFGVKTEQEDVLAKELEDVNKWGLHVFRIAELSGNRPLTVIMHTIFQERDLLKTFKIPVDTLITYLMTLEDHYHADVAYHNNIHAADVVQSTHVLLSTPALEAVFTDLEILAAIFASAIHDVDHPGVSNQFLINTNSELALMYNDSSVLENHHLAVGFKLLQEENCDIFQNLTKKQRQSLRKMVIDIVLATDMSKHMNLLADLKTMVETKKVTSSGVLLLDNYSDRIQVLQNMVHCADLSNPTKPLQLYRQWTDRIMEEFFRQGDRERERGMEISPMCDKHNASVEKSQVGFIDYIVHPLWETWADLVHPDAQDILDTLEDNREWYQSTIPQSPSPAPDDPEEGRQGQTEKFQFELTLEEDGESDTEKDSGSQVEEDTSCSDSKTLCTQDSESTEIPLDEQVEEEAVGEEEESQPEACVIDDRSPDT
Protocol: as §1

[3] = system: LPS-induced secretion of TNFα in human PBMCs; assay: LPS-induced secretion of TNFα in human PBMCs; format: cell-based; conditions: 24 h, LPS 10 ng/ml
Protocol: Extraction process of peripheral blood mononuclear cells (PBMCs): one unit of human peripheral blood concentrate (concentrated from 200 cc peripheral blood) was sucked and added with 0.9% saline until a total volume reached 120 ml, and mixed homogenously. 15 ml Lymphoprep™ was added into 50 ml centrifuge tube, and then 30 ml of diluted blood concentrate was carefully and slowly added thereto, allowing the diluted blood to be stacked on the layered solution and preventing the diluted blood from being mixed into the separated solutions or breaking the surface of the separated solution, wherein a ratio of Lymphoprep™ to the diluted blood was 1:2. The centrifuge tubes were balanced and placed in a horizontal centrifuge (eppendorf, 5810R), and centrifuged at 800 g and 20° C. for 20 min. The centrifuge tubes were carefully taken out. PBMCs were absorbed by directly inserting the Pasteur pipette deep into the buffy coat. The obtained PBMCs were gently pipetted with 3 times the volume of 0.9% normal saline or PBS (without calcium or magnesium ions) to mix homogenously. After that, the cells were centrifuged at 250 g and 20° C. for 10 min, the supernatant was removed to remove the platelets remaining in the cell suspension. The obtained cell pellet was resuspended in 20 ml of PBS, and counted using trypan blue.
Compound screening by using PBMCs: the PBMC suspension obtained above was centrifuged to remove PBS, then resuspended in complete medium (RPMI1640+10% FBS+1% P/S) and counted. 100 μL/well of the cells was seeded at 5×10^4/well. Each of the compounds to be screened was prepared as 4 times the final concentration, which was added to the cells at 50 μL/well. The compound was pre-incubated for 30 min in advance of being added to the cells. Meanwhile, control wells to which the compound was not added were provided. A final stimulation concentration of LPS was 10 ng/ml, and LPS was formulated as 4 times the final stimulation concentration, and added to the cells at 50 μL/well. Meanwhile, control wells, i.e., wells without LPS were provided. The cells were incubated for 24 h, and 10% of the supernatant was collected for detection. The obtained supernatant was detected using Invitrogen's Human TNF-α kit (REF: 88-7346-88).

T1 sequence (Q07343 whole entry): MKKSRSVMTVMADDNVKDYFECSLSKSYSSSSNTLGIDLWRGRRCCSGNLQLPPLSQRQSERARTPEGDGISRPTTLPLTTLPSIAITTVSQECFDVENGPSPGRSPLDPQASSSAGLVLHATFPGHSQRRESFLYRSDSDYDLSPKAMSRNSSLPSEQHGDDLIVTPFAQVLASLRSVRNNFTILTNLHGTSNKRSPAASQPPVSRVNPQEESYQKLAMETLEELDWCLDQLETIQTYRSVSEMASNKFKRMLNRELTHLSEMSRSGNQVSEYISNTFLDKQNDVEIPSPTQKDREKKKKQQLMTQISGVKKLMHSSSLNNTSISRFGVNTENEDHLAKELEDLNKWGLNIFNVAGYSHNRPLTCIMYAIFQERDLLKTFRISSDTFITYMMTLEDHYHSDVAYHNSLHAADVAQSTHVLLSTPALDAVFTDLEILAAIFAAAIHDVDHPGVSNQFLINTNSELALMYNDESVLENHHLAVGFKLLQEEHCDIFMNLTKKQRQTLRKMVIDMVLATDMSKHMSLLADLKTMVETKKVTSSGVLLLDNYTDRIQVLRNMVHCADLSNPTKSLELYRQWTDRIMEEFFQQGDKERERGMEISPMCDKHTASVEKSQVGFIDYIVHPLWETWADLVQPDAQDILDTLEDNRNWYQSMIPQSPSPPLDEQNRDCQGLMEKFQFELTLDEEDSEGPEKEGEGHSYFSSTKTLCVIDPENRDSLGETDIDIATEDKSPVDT

Row | Compound | IC50 [1] [nM] | IC50 ([3]; Homo sapiens, PBMC) [nM] | inhibition of PDE4B (in words) [1] | selective inhibitory activity against PDE4B versus PDE4D, compared with the positive control compound (in words) [1] | further results
1 | CCc1nc(N2CC(Oc3cc([C@@H]4CN(C(=O)[C@@H](O)CO)C[C@@]4(C)[C@@H](C)O)ccc3OC)C2)ccc1C [Compound 027, (S)-1-((3S,4S)-4-(3-((1-(6-ethyl-5-methylpyridin-2-yl)azetidin-3-yl)oxy)-4-methoxyphenyl)-3-((R)-1-hydroxyethyl)-3-methylpyrrolidin-1-yl)-2,3-dihydroxypropan-1-one] | 14.3 |  |  |  | IC50 (PDE4D)/IC50 (PDE4B) [1]: 1.73; IC50 [2]: 24.8 nM
2 | COc1ccc([C@@H]2CN(C(=O)[C@@H](O)CO)C[C@@]2(C)[C@@H](C)O)cc1OC1CN(c2ccc(F)c(C)n2)C1 [Compound 026, (S)-1-((3S,4S)-4-(3-((1-(5-fluoro-6-methylpyridin-2-yl)azetidin-3-yl)oxy)-4-methoxyphenyl)-3-((R)-1-hydroxyethyl)-3-methylpyrrolidin-1-yl)-2,3-dihydroxypropan-1-one] | 2.76 | 14.9 |  |  | 
3 | COc1ccc(N2CC(Oc3cc([C@@H]4CN(C(=O)[C@@H](O)CO)C[C@@]4(C)[C@@H](C)O)ccc3OC)C2)nc1 [Compound 015, (S)-2,3-dihydroxy-1-((3S,4S)-3-((R)-1-hydroxyethyl)-4-(4-methoxy-3-((1-(5-methoxypyridin-2-yl)azetidin-3-yl)oxy)phenyl)-3-methylpyrrolidin-1-yl)propan-1-one] | 0.68 | 3.34 |  |  | IC50 (PDE4D)/IC50 (PDE4B) [1]: 1.28; IC50 [2]: 0.87 nM
4 | COc1ccc([C@@H]2CN(C(=O)[C@@H](O)CO)C[C@@]2(C)[C@@H](C)O)cc1OC1CN(c2cnc(C#N)cn2)C1 [Compound 019, 5-(3-(5-((3S,4S)-1-((S)-2,3-dihydroxypropanoyl)-4-((R)-1-hydroxyethyl)-4-methylpyrrolidin-3-yl)-2-methoxyphenoxy)azetidin-1-yl)pyrazine-2-carbonitrile] | 1.87 |  |  |  | 
5 | CCc1cnc(N2CC(Oc3cc([C@@H]4CN(C(=O)[C@@H](O)CO)C[C@@]4(C)[C@@H](C)O)ccc3OC)C2)cc1C [Compound 030, (S)-1-((3S,4S)-4-(3-((1-(5-ethyl-4-methylpyridin-2-yl)azetidin-3-yl)oxy)-4-methoxyphenyl)-3-((R)-1-hydroxyethyl)-3-methylpyrrolidin-1-yl)-2,3-dihydroxypropan-1-one] |  |  | effectively inhibit PDE4B | significantly higher than that control compound | 
6 | COc1ccc([C@@H]2CN(C(=O)[C@@H](O)CO)C[C@@]2(C)[C@@H](C)O)cc1OC1CN(c2ncc(C)cn2)C1 [Compound 016, (S)-2,3-dihydroxy-1-((3S,4S)-3-((R)-1-hydroxyethyl)-4-(4-methoxy-3-((1-(5-methylpyrimidin-2-yl)azetidin-3-yl)oxy)phenyl)-3-methylpyrrolidin-1-yl)propan-1-one] |  |  | effectively inhibit PDE4B | significantly higher than that control compound | 
7 | CCc1ccc(N2CC(Oc3cc([C@@H]4CN(C(=O)[C@@H](O)CO)C[C@@]4(C)[C@@H](C)O)ccc3OC)C2)nc1C [Compound 029, (S)-1-((3S,4S)-4-(3-((1-(5-ethyl-6-methylpyridin-2-yl)azetidin-3-yl)oxy)-4-methoxyphenyl)-3-((R)-1-hydroxyethyl)-3-methylpyrrolidin-1-yl)-2,3-dihydroxypropan-1-one] |  |  | effectively inhibit PDE4B | significantly higher than that control compound | 
8 | COc1ccc([C@@H]2CN(C(=O)[C@@H](O)CO)C[C@@]2(C)[C@@H](C)O)cc1OC1CN(c2ncc(Cl)cc2F)C1 [Compound 024, (S)-1-((3S,4S)-4-(3-((1-(5-chloro-3-fluoropyridin-2-yl)azetidin-3-yl)oxy)-4-methoxyphenyl)-3-((R)-1-hydroxyethyl)-3-methylpyrrolidin-1-yl)-2,3-dihydroxypropan-1-one] |  |  | effectively inhibit PDE4B | significantly higher than that control compound | IC50 [3]: 6.56 nM
9 | COc1ccc([C@@H]2CN(C(=O)[C@@H](O)CO)C[C@@]2(C)[C@@H](C)O)cc1OC1CN(c2ncc(Cl)cn2)C1 [Compound 018, (S)-1-((3S,4S)-4-(3-((1-(5-chloropyrimidin-2-yl)azetidin-3-yl)oxy)-4-methoxyphenyl)-3-((R)-1-hydroxyethyl)-3-methylpyrrolidin-1-yl)-2,3-dihydroxypropan-1-one] |  |  | effectively inhibit PDE4B | significantly higher than that control compound | 
10 | COc1ccc([C@@H]2CN(C(=O)[C@@H](O)CO)C[C@@]2(C)[C@@H](C)O)cc1OC1CN(c2ncc(C)cc2Cl)C1 [Compound 005, (S)-1-((3S,4S)-4-(3-((1-(3-chloro-5-methylpyridin-2-yl)azetidin-3-yl)oxy)-4-methoxyphenyl)-3-((R)-1-hydroxyethyl)-3-methylpyrrolidin-1-yl)-2,3-dihydroxypropan-1-one] |  | 6.18 | effectively inhibit PDE4B | significantly higher than that control compound | 
11 | COc1ccc([C@@H]2CN(C(=O)[C@@H](O)CO)C[C@@]2(C)[C@@H](C)O)cc1OC1CN(c2ncc(Cl)cc2C)C1 [Compound 023, (S)-1-((3S,4S)-4-(3-((1-(5-chloro-3-methylpyridin-2-yl)azetidin-3-yl)oxy)-4-methoxyphenyl)-3-((R)-1-hydroxyethyl)-3-methylpyrrolidin-1-yl)-2,3-dihydroxypropan-1-one] | 1.3 | 5.4 |  |  | 
12 | COc1ccc(N2CC(Oc3cc([C@@H]4CN(C(=O)[C@@H](O)CO)C[C@@]4(C)[C@@H](C)O)ccc3OC)C2)cn1 [Compound 020, (S)-2,3-dihydroxy-1-((3S,4S)-3-((R)-1-hydroxyethyl)-4-(4-methoxy-3-((1-(6-methoxypyridin-3-yl)azetidin-3-yl)oxy)phenyl)-3-methylpyrrolidin-1-yl)propan-1-one] | 1.97 | 9.38 |  |  | 
13 | CCc1cnc(N2CC(Oc3cc([C@@H]4CN(C(=O)[C@@H](O)CO)C[C@@]4(C)[C@@H](C)O)ccc3OC)C2)nc1 [Compound 017, (S)-1-((3S,4S)-4-(3-((1-(5-ethylpyrimidin-2-yl)azetidin-3-yl)oxy)-4-methoxyphenyl)-3-((R)-1-hydroxyethyl)-3-methylpyrrolidin-1-yl)-2,3-dihydroxypropan-1-one] |  |  | effectively inhibit PDE4B | significantly higher than that control compound | 
14 | COc1ccc([C@@H]2CN(C(=O)[C@@H](O)CO)C[C@@]2(C)[C@@H](C)O)cc1OC1CN(c2ccc(C#N)c(C)n2)C1 [Compound 013, 6-(3-(5-((3S,4S)-1-((S)-2,3-dihydroxypropanoyl)-4-((R)-1-hydroxyethyl)-4-methylpyrrolidin-3-yl)-2-methoxyphenoxy)azetidin-1-yl)-2-methylnicotinonitrile] |  |  | effectively inhibit PDE4B | significantly higher than that control compound | 
